Reference: patent publication US6211364A, “Process for preparing indane-like compounds” (Eli Lilly and Company, priority 1999, dated 2001)
Read-outs that look alike come from different tables or passages of the source.

How the values were obtained:
[1] = target: T1, human m4 receptors (Homo sapiens, UniProt P08173); assay: M4 assay: cyclic AMP accumulation/production in pertussis toxin-treated CHO m4 cells (% maximum stimulation compared to oxotremorine-M); type: cell-based; conditions: read-out: % Maximum Stimulation Compared to Oxotremorine-M
T1 construct: expressed in transfected cells; host or cells: CHO K1
T1 sequence (P08173 whole entry): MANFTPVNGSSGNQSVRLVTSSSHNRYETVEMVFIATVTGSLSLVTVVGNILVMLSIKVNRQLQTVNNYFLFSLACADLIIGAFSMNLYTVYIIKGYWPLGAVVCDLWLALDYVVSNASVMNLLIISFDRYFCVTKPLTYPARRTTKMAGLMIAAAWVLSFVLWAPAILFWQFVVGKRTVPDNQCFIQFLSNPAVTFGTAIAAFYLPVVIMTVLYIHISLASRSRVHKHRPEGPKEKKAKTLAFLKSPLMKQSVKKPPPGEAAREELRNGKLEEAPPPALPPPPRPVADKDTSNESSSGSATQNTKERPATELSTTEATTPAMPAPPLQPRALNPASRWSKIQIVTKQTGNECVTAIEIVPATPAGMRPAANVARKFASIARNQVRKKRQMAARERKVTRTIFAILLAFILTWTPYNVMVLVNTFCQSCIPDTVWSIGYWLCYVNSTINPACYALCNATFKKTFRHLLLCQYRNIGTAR
Description: II. M4 muscarinic receptor […] assay:
Cyclic AMP Accumulation in Pertussis Toxin-Treated CHO m4 Cells.
CHO K1 cells transfected with human m4 receptors were grown to near confluency in T-150 flasks using Dulbecco's Modified Eagle Medium (DMEM) containing 10% fetal bovine serum. Cells were detached with 0.05% trypsin, 0.53 mM EDTA, and were suspended in medium containing 100 ng/ml pertussis toxin. Cells were plated at 30,000 cells per well into 96 well plates. Eighteen to twenty hours later the medium was removed and the cells were washed with serum-free medium. Attached cells were incubated at 37_C for one hour after addition of […] of serum free DMEM containing 1 mM 3-isobutyl-1-methylxanthine and 1 mM forskolin plus or minus drugs being tested. Incubations were terminated with […] per well of serum free DMEM containing 0.3%, triton-X-100. After stopping incubations the plates were allowed to sit for 20 minutes to extract cAMP and samples were then diluted 2.5-fold and were assayed using the scintillation proximity assay of Amersham (Arlington Heights, Ill.).
Representative results from the M4 assay are as follows:
Stimulation of cyclic AMP Production in CHO-m4 cells.

[2] = tested on: M1 -site muscarinic receptors; conditions: M1 -site versus M2 -sites; cited from earlier work
[3] = target: muscarinic receptor; conditions: muscarinic receptor in the CNS, cited from earlier work

Row | Compound | Emax [1] [%] | other results
1 | O=C(N[C@@H]1c2cc(N=CN3CCCC3)ccc2C[C@H]1O)c1c(Cl)cccc1Cl (relative stereo) [Compound 46] | 154 | 
2 | CN(C)C=Nc1ccc2c(c1)C(NS(=O)(=O)c1ccc(Cl)c(Cl)c1)C(O)C2 (stereo not drawn) [Compound 72] | 4 | 
3 | O=C(N[C@H]1c2cc(N=CN3CCCC3)ccc2C[C@@H]1O)c1cc(Cl)cc(Cl)c1 (relative stereo) [Compound 14] | 100 | 
4 | CC(=Nc1ccc2c(c1)[C@@H](NC(=O)c1ccc(Cl)c(Cl)c1)[C@H](O)C2)N(C)C (relative stereo) [Compound 76] | 130 | 
5 | CCc1ccc(C(=O)N[C@@H]2c3cc(N=CN(C)C)ccc3C[C@H]2O)cc1 (relative stereo) [Compound 67] | 7 | 
6 | CN1CCN(CC(=O)N2c3ccccc3C(=O)Nc3cccnc32)CC1 [Pirenzepine, pirenzepine, [N-methyl-^3 H]] |  | selectivity of pirenzepine binding for muscarinic receptor subtype [2]: selective for M1 -sites
7 | O=C(N[C@H]1c2cc(N=CN3CCCC3)ccc2C[C@@H]1O)C(F)(F)F (relative stereo) [Compound 19] | < 20 | 
8 | CN(C)C=Nc1ccc2c(c1)[C@@H](NC(=O)C1CCCC1)[C@H](O)C2 (relative stereo) [Compound 62] | 27 | 
9 | CN(C)C=Nc1ccc2c(c1)[C@@H](NC(=O)c1cccnc1Cl)[C@H](O)C2 (relative stereo) [Compound 73] | 11 | 
10 | N#Cc1ccc(C(=O)N[C@H]2c3cc(N=CN4CCCC4)ccc3C[C@@H]2O)cc1 (relative stereo) [Compound 13] | < 20 | 
11 | O=C(N[C@H]1c2cc(N=CN3CCCC3)ccc2C[C@@H]1O)c1cc(F)ccc1F (relative stereo) [Compound 32] | < 20 | 
12 | O=C(N[C@@H]1c2cc(N=CN3CCCC3)ccc2C[C@H]1O)c1cc(F)c(F)c(F)c1F (relative stereo) [Compound 40] | 96 | 
13 | CN(C)C=Nc1ccc2c(c1)[C@@H](NC(=O)c1ccc(C(F)(F)F)cc1)[C@H](O)C2 (relative stereo) [Compound 75] | 6 | 
14 | O=C(N[C@@H]1c2cc(N=CN3CCCC3)ccc2C[C@H]1O)C1CCC1 (relative stereo) [Compound 41] | < 20 | 
15 | O=C(N[C@H]1c2cc(N=CN3CCCC3)ccc2C[C@@H]1O)c1cccs1 (relative stereo) [Compound 21] | 23 | 
16 | COc1cccc(C(=O)N[C@H]2c3cc(N=CN4CCCC4)ccc3C[C@@H]2O)c1 (relative stereo) [Compound 34] | 45 | 
17 | O=C(N[C@H]1c2cc(N=CN3CCCC3)ccc2C[C@@H]1O)c1cccc(F)c1 (relative stereo) [Compound 30] | < 20 | 
18 | O=C(N[C@@H]1c2cc(N=CN3CCCC3)ccc2C[C@H]1O)c1ccccc1Cl (relative stereo) [Compound 44] | 41 | 
19 | N#Cc1cccc(C(=O)N[C@H]2c3cc(N=CN4CCCC4)ccc3C[C@@H]2O)c1 (relative stereo) [Compound 38] | < 20 | 
20 | O=C(CSc1ccccc1)N[C@H]1c2cc(N=CN3CCCC3)ccc2C[C@@H]1O (relative stereo) [Compound 28] | < 20 | 

Row | Compound | Emax [1] [%] | other results
21 | CN(C)C=Nc1ccc2c(c1)[C@@H](NC(=O)C(F)(F)F)[C@H](O)C2 (relative stereo) [Compound 66] | 0 | 
22 | CN(C)C=Nc1ccc2c(c1)[C@@H](NC(=O)c1cc(F)cc(C(F)(F)F)c1)[C@H](O)C2 (relative stereo) [Compound 64] | 52 | 
23 | CN(C)C=Nc1ccc2c(c1)[C@@H](NC(=O)c1cc(F)c(F)c(F)c1)[C@H](O)C2 (relative stereo) [Compound 65] | 30 | 
24 | O=C(N[C@H]1c2cc(N=CN3CCCC3)ccc2C[C@@H]1O)c1cccc(F)c1F (relative stereo) [Compound 24] | 22 | 
25 | C[N+](C)(C)CC#CCN1CCCC1=O [3 H-Oxo] |  | Kd ([3]; high affinity site, read-out: affinity of 3H-Oxo, first of three labeled sites): 1.8 nM; Kd ([3]; medium affinity site, read-out: affinity of 3H-Oxo, second of three labeled sites): 20 nM; Kd ([3]; third site, not determined under the present conditions, read-out: affinity of 3H-Oxo, third of three labeled sites): 3000 nM
26 | O=C(N[C@H]1c2cc(N=CN3CCCC3)ccc2C[C@@H]1O)c1c(F)ccc(F)c1F (relative stereo) [Compound 29] | < 20 | 
27 | O=C(N[C@H]1c2cc(N=CN3CCCC3)ccc2C[C@@H]1O)c1ccccc1C(F)(F)F (relative stereo) [Compound 35] | 65 | 
28 | O=C(N[C@@H]1c2cc(N=CN3CCCCC3)ccc2C[C@H]1O)c1cc(Cl)cc(Cl)c1 (relative stereo) [Compound 97] | 36 | 
29 | Cc1cccc(C(=O)N[C@H]2c3cc(N=CN4CCCC4)ccc3C[C@@H]2O)c1 (relative stereo) [Compound 37] | 76 | 
30 | CN(C)C=Nc1ccc2c(c1)[C@@H](NC(=O)c1cc3ccccc3s1)[C@H](O)C2 (relative stereo) [Compound 69] | 14 | 
31 | O=C(N[C@@H]1c2cc(N=CN3CCCCC3)ccc2C[C@H]1O)c1cc(F)cc(F)c1 (relative stereo) [Compound 98] | 73 | 
32 | CN(C)C=Nc1ccc2c(c1)[C@@H](NC(=O)c1cccc3ccccc13)[C@H](O)C2 (relative stereo) [Compound 71] | 95 | 
33 | Cc1cc(C)c(C(=O)N[C@H]2c3cc(N=CN4CCCC4)ccc3C[C@@H]2O)c(C)c1 (relative stereo) [Compound 27] | < 20 | 
34 | CCCCc1ccc(C(=O)N[C@@H]2c3cc(N=CN(C)C)ccc3C[C@H]2O)cc1 (relative stereo) [Compound 70] | 18 | 
35 | CCCCc1ccc(C(=O)N[C@@H]2c3cc(N=CN4CCCC4)ccc3C[C@H]2O)cc1 (relative stereo) [Compound 45] | < 20 | 
36 | O=C(N[C@H]1c2cc(N=CN3CCCC3)ccc2C[C@@H]1O)c1cc(F)c(F)c(F)c1 (relative stereo) [Compound 39] | 43 | 
37 | O=C(N[C@H]1c2cc(N=CN3CCCC3)ccc2C[C@@H]1O)c1cccc([N+](=O)[O-])c1 (relative stereo) [Compound 25] | 43 | 
38 | O=C(N[C@@H]1c2cc(N=CN3CCCC3)ccc2C[C@H]1O)c1c(Cl)cc(Cl)cc1Cl (relative stereo) [Compound 47] | < 20 | 
39 | O=C(N[C@H]1c2cc(N=CN3CCCC3)ccc2C[C@@H]1O)c1ccc(C(F)(F)F)cc1 (relative stereo) [Compound 18] | 61 | 
40 | O=C(N[C@@H]1c2cc(N=CN3CCCCC3)ccc2C[C@H]1O)c1cccc(Cl)c1Cl (relative stereo) [Compound 88] | 52 | 

Row | Compound | Emax [1] [%] | other results
41 | O=C(N[C@H]1c2cc(N=CN3CCCC3)ccc2C[C@@H]1O)C1CCCCC1 (relative stereo) [Compound 11] | 34 | 
42 | CN(C)C=Nc1ccc2c(c1)[C@@H](NC(=O)c1ccc(Cl)nc1)[C@H](O)C2 (relative stereo) [Compound 74] | 8 | 
43 | O=C(N[C@H]1c2cc(N=CN3CCCC3)ccc2C[C@@H]1O)c1cccc(Cl)c1Cl (relative stereo) [Compound 31] | 45 | 
44 | O=C(N[C@H]1c2cc(N=CN3CCCC3)ccc2C[C@@H]1O)c1ccc(F)c(F)c1F (relative stereo) [Compound 33] | 45 | 
45 | CN(C)C=Nc1ccc2c(c1)[C@@H](NC(=O)c1cc(Cl)cc(Cl)c1)[C@H](O)C2 (relative stereo) [Compound 58] | 74 | 
46 | CCCc1ccc(C(=O)N[C@H]2c3cc(N=CN4CCCC4)ccc3C[C@@H]2O)cc1 (relative stereo) [Compound 26] | < 20 | 
47 | CN(C)C=Nc1ccc2c(c1)[C@@H](NC(=O)c1ccccc1)[C@H](O)C2 (relative stereo) [Compound 57] | 5 | 
48 | O=C(N[C@H]1c2cc(N=CN3CCCC3)ccc2C[C@@H]1O)c1cccc2ccccc12 (relative stereo) [Compound 15] | 76 | 
49 | O=C(N[C@H]1c2cc(N=CN3CCCC3)ccc2C[C@@H]1O)c1cccnc1Cl (relative stereo) [Compound 12] | 26 | 
50 | COc1cc(OC)cc(C(=O)N[C@H]2c3cc(N=CN4CCCC4)ccc3C[C@@H]2O)c1 (relative stereo) [Compound 36] | < 20 | 
51 | CCCCOc1ccc(C(=O)N[C@@H]2c3cc(N=CN(C)C)ccc3C[C@H]2O)cc1 (relative stereo) [Compound 59] | 22 | 
52 | O=C(N[C@H]1c2cc(N=CN3CCCC3)ccc2C[C@@H]1O)c1ccc2ccccc2c1 (relative stereo) [Compound 17] | 56 | 
53 | O=C(N[C@H]1c2cc(N=CN3CCCC3)ccc2C[C@@H]1O)c1cc(F)cc(F)c1 (relative stereo) [Compound 23] | < 20 | 
54 | CN(C)C=Nc1ccc2c(c1)[C@@H](NC(=O)c1sccc1Cl)[C@H](O)C2 (relative stereo) [Compound 68] | 0 | 
55 | O=C(N[C@@H]1c2cc(N=CN3CCCCC3)ccc2C[C@H]1O)c1ccc(Cl)c(Cl)c1 (relative stereo) [Compound 77] | 214 | 
56 | CN(C)C=Nc1ccc2c(c1)[C@@H](NC(=O)c1cccc(C#N)c1)[C@H](O)C2 (relative stereo) [Compound 61] | 39 | 
57 | CN(C)C=Nc1ccc2c(c1)[C@@H](NC(=O)c1ccc3ccccc3c1)[C@H](O)C2 (relative stereo) [Compound 63] | 13 | 
58 | O=C(N[C@H]1c2cc(N=CN3CCCC3)ccc2C[C@@H]1O)c1ccc([N+](=O)[O-])cc1Cl (relative stereo) [Compound 20] | 69 | 
